Patent publication US7569530B1, “Antimicrobial compositions, products and methods employing same” (The Procter & Gamble Company, priority 2003, dated 2009)

What was measured:
COX-1 = COX-1 (Homo sapiens, UniProt P23219); assay: In vitro cycloxygenase enzyme inhibition; format: biochemical; conditions: treatment sample at pH 3.0
Text: (§1) In vitro studies of the present invention and its key components have been conducted to assess the efficacy of the claimed compositions in inhibiting the cycloxygenase (COX) 1 and 2 enzymes. Said enzymes are adapted to convert arachidonic acid in cell membranes to prostaglandin, a messenger agent that conveys a signal to the cells to increase and enhance their inflammatory response. […] The results of this in vitro study have been documented in the below-listed chart.

COX-2 = biological target: T1, COX-2 (Homo sapiens, UniProt P35354); assay: In vitro cycloxygenase enzyme inhibition; format: biochemical; conditions: treatment sample at pH 3.0
T1 sequence (P35354 18-604): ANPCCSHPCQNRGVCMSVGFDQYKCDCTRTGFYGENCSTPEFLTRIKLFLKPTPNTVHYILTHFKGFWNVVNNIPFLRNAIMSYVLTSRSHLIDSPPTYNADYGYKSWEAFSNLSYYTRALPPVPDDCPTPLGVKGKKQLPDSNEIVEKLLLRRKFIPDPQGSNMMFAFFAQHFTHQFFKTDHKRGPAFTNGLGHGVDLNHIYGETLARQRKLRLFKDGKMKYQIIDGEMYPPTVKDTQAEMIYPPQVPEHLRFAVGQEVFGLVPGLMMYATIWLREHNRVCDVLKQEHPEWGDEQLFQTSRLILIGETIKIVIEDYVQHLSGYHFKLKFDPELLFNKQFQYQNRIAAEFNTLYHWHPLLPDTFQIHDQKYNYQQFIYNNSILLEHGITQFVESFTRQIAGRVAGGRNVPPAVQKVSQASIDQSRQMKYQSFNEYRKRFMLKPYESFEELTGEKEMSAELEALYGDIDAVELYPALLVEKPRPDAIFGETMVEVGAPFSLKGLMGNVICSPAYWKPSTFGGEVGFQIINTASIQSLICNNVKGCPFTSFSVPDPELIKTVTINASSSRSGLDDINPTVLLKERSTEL
Text: as §1

Chain of COX-1 (P23219 24-599): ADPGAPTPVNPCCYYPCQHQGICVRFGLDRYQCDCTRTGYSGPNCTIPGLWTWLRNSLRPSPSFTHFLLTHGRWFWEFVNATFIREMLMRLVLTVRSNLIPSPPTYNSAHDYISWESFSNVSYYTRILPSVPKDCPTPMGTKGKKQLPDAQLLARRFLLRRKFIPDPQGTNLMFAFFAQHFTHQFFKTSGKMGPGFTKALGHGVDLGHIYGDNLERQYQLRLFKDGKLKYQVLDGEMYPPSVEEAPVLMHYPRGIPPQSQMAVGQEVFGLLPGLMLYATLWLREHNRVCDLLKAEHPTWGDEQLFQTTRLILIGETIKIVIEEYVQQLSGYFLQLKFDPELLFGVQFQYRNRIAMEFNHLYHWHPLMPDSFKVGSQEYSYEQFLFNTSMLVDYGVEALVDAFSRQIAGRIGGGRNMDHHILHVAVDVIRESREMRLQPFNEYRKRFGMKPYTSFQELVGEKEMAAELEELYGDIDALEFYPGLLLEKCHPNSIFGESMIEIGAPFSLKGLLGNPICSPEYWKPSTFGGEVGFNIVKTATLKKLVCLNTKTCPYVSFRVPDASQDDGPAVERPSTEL

Compound	% of Initial Enzyme Activity COX-1 (COX-1)	% of Initial Enzyme Activity COX-2 (COX-2)
O=C1CC[C@@H](C(=O)O)N1 [B, Pyroglutamic Acid]	100%	92%
O=C(O)CC(O)(CC(=O)O)C(=O)O [C, Citric Acid]	94%	100%
Octyl Glyceryl Sulfonate	55%	95%
